Source: ChEMBL document CHEMBL1153476, “Novel mannosyl derivatives of peptidoglycan monomer: Synthesis and biological evaluation of immunomodulatory properties” (2009)

Test system: Mus musculus
Assay: Immunostimulatory activity against ovalbumin-stimulated immune response in mouse serum assessed as ratio of IgG1 to IgG2a at 200 ug, sc measured after 7 days by ELISA
Format: functional

Question: `CC(=O)N[C@@H]1[C@@H](O[C@H](C)C(=O)N[C@@H](C)C(=O)N[C@H](CCC(=O)N[C@H](CCC[C@H](N)C(N)=O)C(=O)N[C@H](C)C(=O)N[C@H](C)C(=O)O)C(N)=O)[C@H](O[C@@H]2O[C@H](CO)[C@@H](O)[C@H](O)[C@H]2NC(C)=O)[C@@H](CO)O[C@H]1O` was tested. Which Ratio did it give?
Answer: The Ratio was 2.6.
